The record followed here is the Kinase Knowledgebase extract (Sharma et al. 2016).

The target of test [1] is PIK3CA (human) (UniProt P42336). The experiment in a line: Inhibition of PIK3CA Kinase Activity.
For test [2] the target is unchanged. The experiment in a line: Inhibition of A2780 Cell Proliferation.

pEC50, pIC50: −log10 of the molar value. Some results are limits rather than exact numbers.

Sequence of PIK3CA (human) (P42336 whole entry, looked up): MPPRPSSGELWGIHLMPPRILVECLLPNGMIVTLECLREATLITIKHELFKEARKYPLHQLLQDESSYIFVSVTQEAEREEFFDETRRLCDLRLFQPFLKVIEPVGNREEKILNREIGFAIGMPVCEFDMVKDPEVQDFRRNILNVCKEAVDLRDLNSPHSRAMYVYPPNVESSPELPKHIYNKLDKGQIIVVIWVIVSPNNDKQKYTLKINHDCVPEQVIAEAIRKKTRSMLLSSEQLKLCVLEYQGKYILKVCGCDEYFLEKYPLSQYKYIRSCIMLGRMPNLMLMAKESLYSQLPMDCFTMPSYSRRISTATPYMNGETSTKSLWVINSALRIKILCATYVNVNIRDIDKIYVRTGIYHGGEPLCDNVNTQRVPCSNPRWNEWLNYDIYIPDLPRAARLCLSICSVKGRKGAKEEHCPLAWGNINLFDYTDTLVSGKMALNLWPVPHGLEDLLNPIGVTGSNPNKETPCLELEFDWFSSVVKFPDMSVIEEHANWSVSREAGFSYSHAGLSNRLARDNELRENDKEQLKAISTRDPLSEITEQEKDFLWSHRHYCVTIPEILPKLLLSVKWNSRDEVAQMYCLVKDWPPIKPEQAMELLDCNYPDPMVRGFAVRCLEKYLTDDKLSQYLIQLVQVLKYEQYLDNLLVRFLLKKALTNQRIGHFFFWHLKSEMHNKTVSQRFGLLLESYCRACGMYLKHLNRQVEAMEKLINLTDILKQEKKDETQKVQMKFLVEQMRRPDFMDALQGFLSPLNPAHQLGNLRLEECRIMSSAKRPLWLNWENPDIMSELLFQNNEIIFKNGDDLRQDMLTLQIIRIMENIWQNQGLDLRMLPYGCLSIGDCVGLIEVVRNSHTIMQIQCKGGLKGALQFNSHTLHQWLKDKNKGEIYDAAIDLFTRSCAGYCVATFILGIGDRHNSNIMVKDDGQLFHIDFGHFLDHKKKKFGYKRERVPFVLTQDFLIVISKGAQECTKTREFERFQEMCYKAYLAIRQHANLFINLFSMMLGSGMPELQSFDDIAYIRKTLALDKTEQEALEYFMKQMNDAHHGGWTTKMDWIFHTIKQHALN

For orientation: pIC50 means the IC50 on a negative log10 scale, so that one unit is a factor of ten. A word on the pEC50: it is −log10 of the EC50, conventionally taken in molar units. Low readings indicate a large EC50, high ones a small EC50. As to `CCN(CC)Cc1cc(-c2ccc3nc(NC(C)=O)cn3c2)cnc1N`, the negative logarithm of the IC50 (pIC50) against PIK3CA (human) [1] was above 6.00. In addition, on PIK3CA (human) [2], the negative-log EC50 (pEC50) is above 4.60. The like results for `CC(=O)Nc1cn2cc(-c3cnc(N)c(-c4ccc(OC(F)(F)F)cc4)c3)ccc2n1` were, in that order, above 6.00 and above 6.00. For `CC(=O)Nc1nc2ccc(-c3cnc(N)c(Br)c3)cn2c1Br`, in that order: above 6.00 and above 5.00. The compound `Nc1ncc(-c2ccc3nc(NC(=O)N4CCC[C@H]4CO)cn3c2)cc1C(F)(F)F` had a pIC50 against PIK3CA (human) [1] above 6.00. In addition, the negative-log EC50 (pEC50) on PIK3CA (human) [2] is above 5.00. For `CC(C)(C)OC(=O)N1CCC1C(=O)Nc1cn2cc(-c3cnc(N)c(OCC(F)(F)F)n3)ccc2n1` (centres undefined), in that order: above 6.00 and above 4.60.

With `CC(=O)Nc1cn2cc(-c3cnc(N)c(O[C@H](C)C(F)(F)F)n3)cc(F)c2n1`, on PIK3CA (human) [1], the negative-log IC50 (pIC50) is above 6.00. Consider `CC(C)(C)OC(=O)NCCCC(=O)Nc1cn2nc(-c3cnc(N)c(C(F)(F)F)c3)ccc2n1`, for which the pIC50 against PIK3CA (human) [1] was above 6.00. At PIK3CA (human) [2], this compound had a pEC50 above 6.00.

Turning to `Nc1ncc(-c2ccc3nc(NC(=O)CO[C@@H]4CCNC4)cn3c2)cc1C(F)(F)F`, the pIC50 against PIK3CA (human) [1] is above 6.00. The compound also showed a pEC50 at PIK3CA (human) [2] above 5.00.

`CC(C)(C)OC(=O)N1CC(C(=O)Nc2cn3cc(-c4cnc(N)c(C(F)(F)F)c4)ccc3n2)C1` gave a negative-log IC50 (pIC50) against PIK3CA (human) [1] above 6.00. On PIK3CA (human) [2], this compound gave a pEC50 above 5.00. The like results for `CC(=O)Nc1cn2nc(-c3cnc(N)c(OC(F)F)c3)ccc2n1` were, in that order, above 6.00 and above 6.00. For `CC(=O)Nc1cn2cc(-c3cnc(N)c(C(=O)NCCO)n3)ccc2n1`, in that order: above 6.00 and above 4.60.

The compound `COC[C@@H]1CCCN1C(=O)Nc1cn2cc(-c3cnc(N)c(C(F)(F)F)c3)ccc2n1` had a negative-log IC50 (pIC50) at PIK3CA (human) [1] above 6.00. This compound also gave a pEC50 at PIK3CA (human) [2] above 4.60. `NC(=O)[C@@H]1CCCN1C(=O)Nc1cn2cc(-c3cnc(N)c(C(F)(F)F)c3)ccc2n1` gave a pEC50 at PIK3CA (human) [2] above 5.00. The compound `CC(=O)Nc1nc2ccc(-c3cnc(N)c(C(F)(F)F)c3)c(F)c2s1` showed a pIC50 at PIK3CA (human) [1] above 6.00. This compound had a pEC50 at PIK3CA (human) [2] above 5.00. Regarding `COc1nc(-c2ccc3nc(NC(C)=O)cn3n2)cnc1N`, the pIC50 at PIK3CA (human) [1] was above 6.00. Besides, the negative-log EC50 (pEC50) on PIK3CA (human) [2] was above 5.00. Consider `CC(=O)Nc1cn2cc(-c3cnc(N)c(C(F)(F)F)c3)c(F)cc2n1`, for which the pIC50 against PIK3CA (human) [1] is above 6.00. In addition, at PIK3CA (human) [2], the pEC50 is above 4.60. `CC(=O)Nc1cn2cc(-c3cnc(N)c(Oc4ccc(F)cc4)n3)ccc2n1` gave a pIC50 on PIK3CA (human) [1] above 6.00. The compound further had a pEC50 on PIK3CA (human) [2] above 6.00.

Turning to `CC(=O)Nc1nc2ccc(-c3ccc(N)nc3)cn2c1Br`, the pIC50 at PIK3CA (human) [1] was above 5.00. The compound `CC(=O)Nc1cn2nc(-c3cnc(N)c(-c4ccn(C)n4)c3)ccc2n1` gave a negative-log IC50 (pIC50) on PIK3CA (human) [1] above 6.00. Besides, the negative-log EC50 (pEC50) on PIK3CA (human) [2] is above 6.00.

On PIK3CA (human) [1], `CCN(CC)C(=O)c1cc(-c2ccc3nc(NC(C)=O)cn3c2)cnc1N` showed a pIC50 above 6.00. The compound further gave a negative logarithm of the EC50 (pEC50) on PIK3CA (human) [2] above 5.00. The like results for `CC(=O)Nc1nc2ccc(-c3cnc(N)c(C(F)(F)F)c3)cn2c1C#CCNC(=O)OC(C)(C)C` were, in that order, above 6.00 and above 5.00. The compound `COc1ccc(C2CCCN2C(=O)Nc2cn3cc(-c4cnc(N)c(C(F)(F)F)c4)ccc3n2)cc1OC` (centres undefined) showed a pIC50 against PIK3CA (human) [1] above 6.00. Turning to `Nc1ncc(-c2ccc3nc(NC(=O)N4CC[C@H]4C(=O)O)cn3c2)cc1C(F)(F)F`, on PIK3CA (human) [1], the pIC50 was above 5.00. Moreover, the pEC50 at PIK3CA (human) [2] is above 4.60. The compound `CN(CC(=O)Nc1cn2nc(-c3cnc(N)c(C(F)(F)F)c3)ccc2n1)C(=O)OC(C)(C)C` had a pIC50 against PIK3CA (human) [1] above 6.00. This compound had a negative-log EC50 (pEC50) on PIK3CA (human) [2] above 5.00.

Regarding `Nc1ncc(-c2ccc3nc(NC(=O)c4ccccc4C(=O)O)cn3c2)cc1C(F)(F)F`, the negative-log IC50 (pIC50) against PIK3CA (human) [1] is above 5.00. At PIK3CA (human) [1], `CC(=O)Nc1nc2ccc(-c3cnc(N)c(F)c3)cc2s1` showed a pIC50 above 6.00. On PIK3CA (human) [2], this compound showed a pEC50 above 5.00.

At PIK3CA (human) [1], `Nc1ncc(-c2ccc3nc(NC(=O)COC4CCNCC4)cn3c2)cc1C(F)(F)F` gave a pIC50 above 6.00. On PIK3CA (human) [2], this compound gave a pEC50 above 5.00. The like results for `CC(C)(C)OC(=O)N1CC[C@H]1C(=O)Nc1cn2cc(-c3cnc(N)c(C(F)(F)F)c3)ccc2n1` were, in that order, above 6.00 and above 4.60.

Compound `CC(=O)Nc1cn2cc(-c3cnc(N)c(Oc4ccc(N5CCN(C(C)=O)CC5)cc4)n3)ccc2n1` showed a pIC50 against PIK3CA (human) [1] above 6.00. Further, on PIK3CA (human) [2], the pEC50 is above 5.00. Take `CC(=O)Nc1nc2ccc(-c3cnc(NC(C)=O)c(C(F)(F)F)c3)cc2s1`: the negative-log IC50 (pIC50) on PIK3CA (human) [1] was above 6.00.
